Laboratory results taken from patent US11110082B2, “Tyrosine kinase inhibitors” (Rigel Pharmaceuticals, Inc., priority 2016, dated 2021).

Target: T1, MerTK (Homo sapiens, UniProt Q12866)
T1 construct: Seed HUVECs (10K cells/well) in EBM-2 complete media; host or cells: HUVEC (primary human umbilical vein endothelial cells)
T1 sequence (Q12866 21-999): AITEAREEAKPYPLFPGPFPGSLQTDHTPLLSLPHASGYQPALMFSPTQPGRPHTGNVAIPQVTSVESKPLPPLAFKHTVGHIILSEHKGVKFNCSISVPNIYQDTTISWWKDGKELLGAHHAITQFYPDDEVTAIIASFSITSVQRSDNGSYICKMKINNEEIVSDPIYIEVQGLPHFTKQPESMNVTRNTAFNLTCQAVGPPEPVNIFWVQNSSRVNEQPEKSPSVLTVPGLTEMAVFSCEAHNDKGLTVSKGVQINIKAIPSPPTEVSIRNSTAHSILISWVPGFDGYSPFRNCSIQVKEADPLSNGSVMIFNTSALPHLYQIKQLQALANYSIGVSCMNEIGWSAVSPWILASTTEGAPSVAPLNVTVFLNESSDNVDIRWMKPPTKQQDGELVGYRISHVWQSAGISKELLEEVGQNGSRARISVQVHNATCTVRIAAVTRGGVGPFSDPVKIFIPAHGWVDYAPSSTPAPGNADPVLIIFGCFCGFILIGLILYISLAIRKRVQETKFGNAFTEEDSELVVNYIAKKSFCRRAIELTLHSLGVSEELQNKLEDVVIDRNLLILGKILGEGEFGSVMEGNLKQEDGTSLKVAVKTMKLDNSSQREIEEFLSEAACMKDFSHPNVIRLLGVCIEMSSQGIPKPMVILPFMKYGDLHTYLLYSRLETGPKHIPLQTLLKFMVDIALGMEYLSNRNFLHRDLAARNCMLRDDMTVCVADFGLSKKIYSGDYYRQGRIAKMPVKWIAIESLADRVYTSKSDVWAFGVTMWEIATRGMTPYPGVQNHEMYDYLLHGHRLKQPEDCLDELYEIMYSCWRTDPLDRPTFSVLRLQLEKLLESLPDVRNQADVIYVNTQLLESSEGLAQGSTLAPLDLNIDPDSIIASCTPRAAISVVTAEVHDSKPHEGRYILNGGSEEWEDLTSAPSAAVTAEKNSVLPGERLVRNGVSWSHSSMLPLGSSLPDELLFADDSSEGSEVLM
Assay: PAKT HTRF-HUVEC assay (pAkt Ser473 HTRF after anti-human MerTK-XL stimulation)
Format: cell-based
Settings: HUVEC cells, 1 hour compound, stimulated with anti-human MerTK-XL 1 ug/mL for 10 minutes, read-out: inhibition of MerTK
Summary of the method: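 Akt Ser473 phosphorylation measured by HTRF in lysates of serum-starved HUVECs. Cells received compound for 1 h at 37° C before a 10-min challenge with antibody-cross-linked anti-MerTK (1 ug/mL final); EC50 derived by curve fit.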

Row | Compound | EC50 [nM]
1 | O=c1c2cc(CN3CCOCC3)ccc2c2cnc(NCC3CC3)nc2n1[C@H]1CC[C@H](O)CC1 [Compound 155] | 149
2 | CCCCNc1ncc2c3ccc(N4CCN(C)CC4)cc3c(=O)n(C3CC4(CC(O)C4)C3)c2n1 (stereo not shown) [Compound 88, 3-(Butylamino)-5-(6-hydroxyspiro[3.3]heptan-2-yl)-8-(4-methylpiperazin-1-yl)pyrimido[4,5-c]isoquinolin-6(5H)-one] | 51
3 | O=c1c2cc(CN3CCC(N4CCCC4)CC3)ccc2c2cnc(NCC3CC3)nc2n1[C@H]1CC[C@H](O)CC1 [Compound 149] | 53.8
4 | CN1CCN(Cc2ccc3c(c2)c(=O)n([C@H]2CC[C@H](O)CC2)c2nc(NC4CC(F)(F)C4)ncc32)CC1 [Compound 12, trans-3-((3,3-Difluorocyclobutyl)amino)-5-(4-hydroxycyclohexyl)-8-((4-methylpiperazin-1-yl)methyl)pyrimido[4,5-c]isoquinolin-6(5H)-one] | 116
5 | CC1(O)CCC(n2c(=O)c3cc(CN4CCN(C5COC5)CC4)ccc3c3cnc(NCC4CC4)nc32)CC1 (stereo not shown) [Compound 148] | 16.8
6 | CN1CC2(C1)CN(c1ccc3c(c1)c(=O)n([C@H]1CC[C@H](O)CC1)c1nc(NC4CC(F)(F)C4)ncc31)C2 [Compound 66, trans-3-((3,3-Difluorocyclobutyl)amino)-5-(4-hydroxycyclohexyl)-8-(6-methyl-2,6-diazaspiro[3.3]heptan-2-yl)pyrimido[4,5-c]isoquinolin-6(5H)-one] | 298
7 | O=c1c2cc(CN3CCN(c4ccncc4)CC3)ccc2c2cnc(NCC3CCC3)nc2n1[C@H]1CC[C@H](O)CC1 [Compound 220, trans-3-((Cyclobutylmethyl)amino)-5-(4-hydroxycyclohexyl)-8-((4-(pyridin-4-yl)piperazin-1-yl)methyl)pyrimido[4,5-c]isoquinolin-6(5H)-one] | 11.2
8 | O=c1c2cc(CN3CCSCC3)ccc2c2cnc(NCC3CC3)nc2n1[C@H]1CC[C@H](O)CC1 [Compound 170] | 36.3
9 | CCCCNc1ncc2c3ccc(CN4CCN(C)CC4)cc3c(=O)n([C@H]3CC[C@H](C(=O)N(C)C)CC3)c2n1 [Compound 142, trans-4-(3-(Butylamino)-8-((4-methylpiperazin-1-yl)methyl)-6-oxopyrimido[4,5-c]isoquinolin-5(6H)-yl)-N,N-dimethylcyclohexane-1-carboxamide] | 115
10 | C[C@]1(O)CC[C@H](n2c(=O)c3cc(CN4CCN(C5COC5)CC4)ccc3c3cnc(NCC4CC4)nc32)CC1 [Compound 36, trans-3-((Cyclopropylmethyl)amino)-5-(4-hydroxy-4-methylcyclohexyl)-8-((4-(oxetan-3-yl)piperazin-1-yl)methyl)pyrimido[4,5-c]isoquinolin-6(5H)-one] | 16.8
11 | O=c1c2cc(CN3CCOCC3)ccc2c2cnc(NCC3CCC3)nc2n1[C@H]1CC[C@H](O)CC1 [Compound 21, trans-3-((Cyclobutylmethyl)amino)-5-(4-hydroxycyclohexyl)-8-(morpholinomethyl)pyrimido [4,5-c]isoquinolin-6(5H)-one] | 30.7
12 | O=c1c2cc(CN3CC[S+]([O-])CC3)ccc2c2cnc(NCC3CC3)nc2n1[C@H]1CC[C@H](O)CC1 [Compound 165] | 401
13 | O=c1c2cc(CN3CCN(c4ccncc4)CC3)ccc2c2cnc(NC3CCC3)nc2n1[C@H]1CC[C@H](O)CC1 [Compound 225, trans-3-(Cyclobutylamino)-5-(4-hydroxycyclohexyl)-8-((4-(pyridin-4-yl)piperazin-1-yl)methyl)pyrimido[4,5-c]isoquinolin-6(5H)-one] | 21
14 | CC(C)N1CCN(c2ccc3c(c2)c(=O)n([C@H]2CC[C@H](O)CC2)c2nc(NCC4CC4)ncc32)CC1 [Compound 109, trans-3-((Cyclopropylmethyl)amino)-5-(4-hydroxycyclohexyl)-8-(4-isopropylpiperazin-1-yl)pyrimido[4,5-c]isoquinolin-6(5H)-one] | 97.5
15 | CC(C)(C)N1CCN(Cc2ccc3c(c2)c(=O)n([C@H]2CC[C@H](O)CC2)c2nc(NC4CC(F)(F)C4)ncc32)CC1 [Compound 199, trans-8-((4-(tert-Butyl)piperazin-1-yl)methyl)-3-((3,3-difluorocyclobutyl)amino)-5-(4-hydroxycyclohexyl)pyrimido[4,5-c]isoquinolin-6(5H)-one] | 10.8
16 | C[C@]1(O)CC[C@H](n2c(=O)c3ccccc3c3cnc(NCC4CCC4)nc32)CC1 [Compound 123, trans-3-((Cyclobutylmethyl)amino)-5-(4-hydroxy-4-methylcyclohexyl)pyrimido [4,5-c]isoquinolin-6(5H)-one] | 76.5
17 | CC(C)Nc1ncc2c3ccc(CN4CCN(C)CC4)cc3c(=O)n([C@H]3CC[C@H](O)CC3)c2n1 [Compound 195, trans-5-(4-Hydroxycyclohexyl)-3-(isopropylamino)-8-((4-methylpiperazin-1-yl)methyl)pyrimido[4,5-c]isoquinolin-6(5H)-one] | 72.1
18 | CCCCNc1ncc2c3ccc(CN4CCN(C)CC4)cc3c(=O)n([C@H]3CCC[C@H](O)CC3)c2n1 [Compound 229, 3-(butylamino)-5-((1S,4S)-4-hydroxycycloheptyl)-8-((4-methylpiperazin-1-yl)methyl)pyrimido[4,5-c]isoquinolin-6(5H)-one] | 72
19 | O=c1c2cc(CN3CCC4(CC3)COC4)ccc2c2cnc(NC3CCC3)nc2n1[C@H]1CC[C@H](O)CC1 [Compound 209, trans-8-((2-Oxa-7-azaspiro[3.5]nonan-7-yl)methyl)-3-(cyclobutylamino)-5-(4-hydroxycyclohexyl)pyrimido[4,5-c]isoquinolin-6(5H)-one] | 13.9
20 | O=c1c2cc(N3CCNCC3)ccc2c2cnc(NCC3CC3)nc2n1[C@H]1CC[C@H](O)CC1 [Compound 108, trans-3-((Cyclopropylmethyl)amino)-5-(4-hydroxycyclohexyl)-8-(piperazin-1-yl)pyrimido[4,5-c]isoquinolin-6(5H)-one] | 170
21 | CN1CCN(Cc2ccc3c(c2)c(=O)n(C2CCNCC2)c2nc(NCC4CC4)ncc32)CC1 [Compound 191] | 875
22 | CN1CCN(c2ccc3c(c2)c(=O)n([C@H]2CC[C@H](O)CC2)c2nc(NCC4CCC4)ncc32)CC1 [Compound 92, trans-3-((Cyclobutylmethyl)amino)-5-(4-hydroxycyclohexyl)-8-(4-methylpiperazin-1-yl)pyrimido[4,5-c]isoquinolin-6(5H)-one] | 38.8
23 | O=c1c2cc(CN3CCN(C4COC4)CC3)ccc2c2cnc(NCC3CC3)nc2n1[C@H]1CC[C@H](O)CC1 [Compound 147] | 46.7
24 | CCC1(CNc2ncc3c4ccccc4c(=O)n([C@H]4CC[C@H](O)CC4)c3n2)CCC1 [Compound 116, trans-3-(((1-Ethylcyclobutyl)methyl)amino)-5-(4-hydroxycyclohexyl)pyrimido [4,5-c]isoquinolin-6(5H)-one] | 4620
25 | O=c1c2cc(OCCCN3CCOCC3)ccc2c2cnc(NCC3CC3)nc2n1[C@H]1CC[C@H](O)CC1 [Compound 208, trans-3-((Cyclopropylmethyl)amino)-5-(4-hydroxycyclohexyl)-8-(3-morpholinopropoxy)pyrimido[4,5-c]isoquinolin-6(5H)-one] | 415
